{"source": "paper PMC2288786", "about": "(BMC Structural Biology, 2008)", "key": {"CaM [1]": {"target": "T1, CaM (Rattus norvegicus, UniProt P0DP29)", "T1 construct": "made in house; host or cells: E. coli Rosetta (DE3)", "test": "Surface plasmon resonance, peptide over immobilised CaM", "format": "binding, vertebrate", "procedure": "SPR assays were performed with a Biacore 3000 instrument (Biacore AB, Uppsala, Sweden). […] Binding of the peptide was tested in 10 mM HEPES pH 7.5, 150 mM NaCl, 4 mM CaCl2 containing 0.005% P-20 surfactant (Biacore AB), at a flow rate of 30 μl/min. Various concentrations of the peptide (2.5–200 μM) were injected in duplicate over both of the flow cells for 3 min, and a 6-min dissociation phase followed each injection. The surfaces were regenerated with a 20-s injection of 10 mM EDTA and another 10-s injection of 20 mM NaOH at a flow rate of 30 μl/min prior to the next injection cycle. The BIAevaluation software version 3.1 (Biacore AB) was used to analyse the data. […] Furthermore, a sensorgram of the injection of buffer alone was subtracted from the data. The data were analysed using the various interaction models available in the software, including the mass transfer model. The only model giving a reasonable fit to the data was the conformational change model (see Results).\nA 20-μM solution of the peptide in the running buffer was injected over the flow cells of the CaM-coated sensor chip at a flow rate of 30 μl/min, using different injection times (1, 3, and 20 min). Each injection was followed by a 15-min dissociation time. The surface was regenerated and the data were treated as above."}, "CaM [2]": {"target": "T1, CaM", "test": "Isothermal titration calorimetry of MBP peptide binding to CaM", "set-up": "species or system vertebrate", "procedure": "The peptide was dissolved in 50 mM HEPES pH 7.5, 20 mM CaCl2 and stored at -20°C. […] Native MBP protein isolated using the chloroform extraction method from post-mortem human brain was obtained from FermLab (Turku, Finland).\nThe samples for the experiment were extensively dialysed against 50 mM HEPES pH 7.5, 20 mM CaCl2 and degassed in an ultrasonic water bath. […] The first injection of 2 μl was followed by 19 15-μl injections of the peptide. The experiment was carried out at +25, +30, +35, and +40°C. The dilution heat was measured by titrating the buffer with the 1 mM peptide solution. […] The raw data were fitted by non-linear least squares minimisation with models for both a single site and four binding sites (see Results), using the Origin version 5.0 software (MicroCal)."}, "CaM [3]": {"target": "T1, CaM", "test": "Size exclusion chromatography of CaM with and without MBP peptide", "format": "binding, vertebrate", "details": "Superdex 75, free CaM", "description": "Gel filtration chromatography with the ÄKTApurifier system (Pharmacia Biotech) was used to investigate the difference in the behaviour of CaM in the presence and absence of the MBP peptide. A Superdex 75 HR 10/30 column (Amersham Pharmacia Biotech) was equilibrated with 50 mM HEPES buffer pH 7.5, 150 mM NaCl, 4 mM CaCl2. The experiments were run at a flow rate of 0.5 ml/min, the injection volumes were 250 μl, the concentration of CaM was 0.8 mM, and the concentration of the peptide was 4 mM."}, "CaM [4]": {"target": "T1, CaM", "test": "Far-UV circular dichroism, k2d secondary structure deconvolution", "format": "physicochemical, vertebrate", "details": "k2d deconvolution of CD spectrum, +20°C, 10 mM HEPES pH 7.5, 150 mM NaCl, 4 mM CaCl2; CaM 0.050 mg/ml, peptide 0.030 mg/ml", "procedure": "The spectra were corrected by subtracting the spectrum of a buffer sample (10 mM HEPES pH 7.5, 150 mM NaCl, 4 mM CaCl2). Noise reduction was applied to smooth the data with the Jasco software. The spectra are presented as mean residue ellipticity (θ), calculated by using the molar concentration of peptide or protein and multiplying by the appropriate number of peptide bonds. […] Secondary structure contents of the samples were estimated with the program […] [26]."}, "CaM [5]": {"test_system": "CaM", "test": "Affinity chromatography of human brain MBP on CaM-sepharose", "format": "binding", "procedure": "Calcium-dependent affinity chromatography of human MBP on CaM-sepharose (GE Healthcare) was carried out as follows: 200 μg of lyophilized human brain MBP were dissolved in 50 mM HEPES pH 7.5, 150 mM NaCl, 2 mM CaCl2. The same buffer that was used to equilibrate 100 μl of the CaM-sepharose matrix. The sample was mixed with the matrix and washed with 5 ml of the above buffer. Elution was done with 1.4 ml of 50 mM HEPES pH 7.5, 150 mM NaCl, 2 mM EGTA. The fractions were applied on a 18% SDS-PAGE gel. To detect which isoforms were bound to CaM-sepharose, fractions 2 (wash) and 7 (EGTA elution) were purified with Vivapure® C18 Micro spin columns prior to analysis by mass spectrometry. MALDI-ToF mass spectrometry was performed with a Voyager-DE STR Biospectrometry Workstation (Applied Biosystems). 1 μl of the protein sample was spotted on sinapinic acid matrix."}}, "note": "Where no end group is shown, it is not given here."}
{"substance": "HKGFKGVDAQGTLSKIFKL [MBP peptide]", "values": [{"measurement": "Kd", "setting": "CaM [1]", "result": 58, "unit": "µM"}, {"measurement": "Kd", "setting": "CaM [2]", "result": 25900, "unit": "nM"}, {"measurement": "Kd", "setting": "CaM [2]; 25°C (298.15 K), fit to the specific binding site only (one site, peaks 2–7), 1.0 mM peptide into 0.10 mM CaM, 50 mM HEPES pH 7.5, 20 mM CaCl2", "result": 3400, "unit": "nM"}, {"measurement": "Kd", "setting": "CaM [2]; 30°C (303.15 K), fit to the specific binding site only (one site, peaks 2–7), 1.0 mM peptide into 0.10 mM CaM, 50 mM HEPES pH 7.5, 20 mM CaCl2", "result": 2300, "unit": "nM"}, {"measurement": "Kd", "setting": "CaM [2]; 35°C (308.15 K), fit to the specific binding site only (one site, peaks 2–7), 1.0 mM peptide into 0.10 mM CaM, 50 mM HEPES pH 7.5, 20 mM CaCl2", "result": 1900, "unit": "nM"}, {"measurement": "Kd in words", "setting": "CaM [2]; ITC, different temperatures", "result": "low μM range"}]}
{"substance": "calmodulin [CaM]", "values": [{"measurement": "apparent molecular weight in gel filtration", "setting": "CaM [3]", "result": "approximately 30 kDa"}, {"measurement": "Random coil content", "setting": "CaM [4]", "result": 0.12}, {"measurement": "α-Helix content", "setting": "CaM [4]", "result": 0.88}, {"measurement": "β-Sheet content", "setting": "CaM [4]", "result": 0}]}
{"substance": "myelin basic protein (HKGFKGVDAQGTLSKIFKL) [MBP, Native MBP protein isolated using the chloroform extraction method from post-mortem human brain; 17.2- and 18.5-kDa isoforms]", "values": [{"measurement": "binding to CaM-sepharose in presence of calcium", "setting": "CaM [5]; 50 mM HEPES pH 7.5, 150 mM NaCl, 2 mM CaCl2", "result": "retained in the affinity matrix"}, {"measurement": "release from CaM-sepharose by EGTA", "setting": "CaM [5]; 50 mM HEPES pH 7.5, 150 mM NaCl, 2 mM EGTA", "result": "released"}, {"measurement": "MBP isoforms in EGTA eluate", "setting": "CaM [5]; MALDI-ToF mass spectrometry", "result": "17.2 and 18.5 kDa, were both present in the EGTA eluate"}]}
